pEC50, pKi: −log10 of the molar value. The source made the active and inactive calls. No cut-off for these calls is given here.
Key:
Cannabinoid receptor 1 = Cannabinoid receptor 1 (Homo sapiens, UniProt P21554); test: Displacement of [3H]CP55,940 from human recombinant CB1 receptor expressed in HEK293 cell membranes after 90 mins
Cannabinoid receptor 2 [1] = target: T1, Cannabinoid receptor 2 (Homo sapiens, UniProt P34972); test: Displacement of [3H]CP55,940 from human recombinant CB2 receptor expressed in HEK293 cell membranes after 90 mins
HEK293 = test: Selectivity index, ratio of Ki for human recombinant CB1 receptor expressed in HEK293 cell membranes to Ki for human recombinant CB2 receptor expressed in HEK293 cell membranes; type: cell-based
Cannabinoid receptor 2 [2] = target: T1, Cannabinoid receptor 2; test: Agonist activity at human CB2 receptor expressed in CHO cell membranes by [35S]GTPgammaS binding assay; type: functional
[3] = target: Cannabinoid receptor 1 (Rattus norvegicus) (UniProt P20272); test: Agonist activity at CB1 receptor in rat cerebellar membranes at < 10 uM by [35S]GTPgammaS binding assay; type: functional, cell membranes; conditions: Cerebellum, Membrane
[4] = target: Cannabinoid receptor 1 (Rattus norvegicus) (UniProt P20272); test: Antagonist activity at CB1 receptor in rat cerebellar membranes assessed as inhibition of HU-210-induced [35S]GTPgammaS binding at 10 uM; type: functional, cell membranes; conditions: Cerebellum, Membrane
Cannabinoid receptor 2 [5] = target: T1, Cannabinoid receptor 2; test: Antagonist activity at human CB2 receptor expressed in CHO cell membranes assessed as inhibition of HU-210-induced [35S]GTPgammaS binding; type: functional
Cannabinoid receptor 2 [6] = target: T1, Cannabinoid receptor 2; test: Activity at human CB2 receptor expressed in CHO cell membranes by [35S]GTPgammaS binding assay; type: functional
Cannabinoid receptor 2 [7] = target: T1, Cannabinoid receptor 2; test: Neutral antagonist activity at human CB2 receptor expressed in CHO membranes assessed as inhibition of inverse agonist SR144528-induced responses by [35S]GTPgammaS binding assay; type: functional, cell membranes
Cannabinoid receptor 2 [8] = target: T1, Cannabinoid receptor 2; test: Neutral antagonist activity at human CB2 receptor expressed in CHO membranes assessed as inhibition of agonist HU-210-induced responses by [35S]GTPgammaS binding assay; type: functional, cell membranes
Cannabinoid receptor 2 [9] = target: T1, Cannabinoid receptor 2; test: Competitive antagonist activity at human CB2 receptor expressed in CHO membranes assessed as inhibition of HU-210-induced [35S]GTPgammaS binding by Schild-plot; type: functional, cell membranes; conditions: read-out: pA2 (converted)

T1 sequence (P34972 whole entry): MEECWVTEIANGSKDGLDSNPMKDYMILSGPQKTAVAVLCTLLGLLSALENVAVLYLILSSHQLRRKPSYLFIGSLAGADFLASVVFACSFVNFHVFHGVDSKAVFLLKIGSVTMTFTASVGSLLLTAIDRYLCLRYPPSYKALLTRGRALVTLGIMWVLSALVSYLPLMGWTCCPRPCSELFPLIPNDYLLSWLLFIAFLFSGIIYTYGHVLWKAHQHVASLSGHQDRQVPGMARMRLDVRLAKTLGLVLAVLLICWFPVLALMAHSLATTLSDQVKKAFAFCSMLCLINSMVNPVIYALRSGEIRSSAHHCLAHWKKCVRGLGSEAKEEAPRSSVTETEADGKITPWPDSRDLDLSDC
Sequence of Cannabinoid receptor 1 (Rattus norvegicus) (P20272 whole entry): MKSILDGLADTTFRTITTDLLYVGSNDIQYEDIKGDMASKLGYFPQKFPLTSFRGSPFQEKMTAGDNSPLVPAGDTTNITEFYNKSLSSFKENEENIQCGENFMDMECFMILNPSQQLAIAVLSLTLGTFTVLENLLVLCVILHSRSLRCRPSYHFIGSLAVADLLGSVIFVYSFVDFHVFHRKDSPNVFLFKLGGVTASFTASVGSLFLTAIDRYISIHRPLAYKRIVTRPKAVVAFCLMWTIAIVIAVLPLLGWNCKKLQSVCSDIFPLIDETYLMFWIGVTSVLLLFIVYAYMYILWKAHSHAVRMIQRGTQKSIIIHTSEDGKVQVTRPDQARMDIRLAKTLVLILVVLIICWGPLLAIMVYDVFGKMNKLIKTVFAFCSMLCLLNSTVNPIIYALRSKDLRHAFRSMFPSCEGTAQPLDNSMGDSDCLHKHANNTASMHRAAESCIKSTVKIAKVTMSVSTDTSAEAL
Sequence of Cannabinoid receptor 1 (P21554 whole entry): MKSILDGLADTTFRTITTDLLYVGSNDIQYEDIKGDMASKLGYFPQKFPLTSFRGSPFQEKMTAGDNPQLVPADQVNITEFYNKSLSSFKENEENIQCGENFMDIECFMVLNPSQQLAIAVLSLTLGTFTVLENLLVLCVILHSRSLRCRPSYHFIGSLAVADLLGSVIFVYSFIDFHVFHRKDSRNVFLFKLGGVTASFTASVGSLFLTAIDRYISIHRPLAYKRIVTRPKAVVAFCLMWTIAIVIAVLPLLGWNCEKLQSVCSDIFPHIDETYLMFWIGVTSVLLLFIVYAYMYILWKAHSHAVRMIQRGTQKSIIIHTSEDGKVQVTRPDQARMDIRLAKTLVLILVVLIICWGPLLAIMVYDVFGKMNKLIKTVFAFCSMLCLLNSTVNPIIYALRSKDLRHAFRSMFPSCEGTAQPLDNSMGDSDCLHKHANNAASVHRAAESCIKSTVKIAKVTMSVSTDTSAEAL

| Structure (SMILES) | pKi (Cannabinoid receptor 1) | pKi (Cannabinoid receptor 2 [1]) | Ratio Ki (HEK293) | other results |
| --- | --- | --- | --- | --- |
| COc1c(C)cc(-c2ccc(F)cc2)cc1C(=O)N[C@H]1CC[C@H](C)CC1 | 6.21 | 7.05 | 6.89 |  |
| COc1c(C)cc(-c2ccc(F)cc2)cc1C(=O)N[C@H]1CC[C@@H](C)CC1 | 6.74 | 7.22 | 3 | pEC50 (Cannabinoid receptor 2 [2]): 6.40; Activity [3]: inactive; inhibition [4]: Active |
| CCCCc1cc(-c2ccc(OC)cc2)cc(C(=O)N[C@H]2CC[C@H](C)CC2)c1OC | 5.64 | 6.84 | 16 | inhibition (Cannabinoid receptor 2 [5]): Active; Activity (Cannabinoid receptor 2 [6]): inactive |
| COc1ccc(-c2cc(C)c(OC)c(C(=O)N[C@H]3CC[C@@H](C)CC3)c2)cc1 | < 5.00 | < 5.00 |  |  |
| COc1c(C)cc(-c2ccccc2)cc1C(=O)N[C@H]1CC[C@@H](C)CC1 | 5.96 | 6.82 | 7.27 |  |
| COc1c(C)cc(-c2ccc(F)cc2)cc1C(=O)NC1CCCCCC1 | 6.80 | 7.22 | 2.67 | pEC50 (Cannabinoid receptor 2 [2]): 6.40; Activity [3]: inactive; inhibition [4]: Active |
| COc1ccc(-c2cc(C)c(OC)c(C(=O)NC3CCCCCC3)c2)cc1 | < 5.00 | < 5.00 |  |  |
| COc1c(C)cc(-c2ccccc2)cc1C(=O)N[C@H]1CC[C@H](C)CC1 | 5.82 | 7.05 | 17 |  |
| CCCC(C)(C)c1ccc2c(c1)OC(C)(C)[C@@H]1CC=C(C)C[C@@H]21 |  |  | 226 |  |
| CCCCc1cc(-c2ccc(OC)cc2)cc(C(=O)NC2CCCCCC2)c1OC | 5.83 | 7.94 | 130 | inhibition (Cannabinoid receptor 2 [5]): Active; Activity (Cannabinoid receptor 2 [6]): inactive; inhibition (Cannabinoid receptor 2 [7]): Dose-dependent effect; inhibition (Cannabinoid receptor 2 [8]): Dose-dependent effect; Kb (Cannabinoid receptor 2 [9]): 794 nM |
| CCCCc1cc(-c2ccc(OC)cc2)cc(C(=O)N[C@H]2CC[C@@H](C)CC2)c1OC | 5.81 | 7.66 | 70 | inhibition (Cannabinoid receptor 2 [5]): Active; Activity (Cannabinoid receptor 2 [6]): inactive |
| COc1c(C)cc(-c2ccccc2)cc1C(=O)NC1CCCCCC1 | 6.06 | 7.00 | 8.7 |  |
| COc1ccc(-c2cc(C)c(OC)c(C(=O)N[C@H]3CC[C@H](C)CC3)c2)cc1 | < 5.00 | < 5.00 |  |  |
